According to patent US10597388B2, “Pyridazinone herbicides” (FMC CORPORATION, priority 2014, dated 2020):

What was measured:
Experiment in all cases: Test D controlled growth environment herbicide test, pre- and postemergence
Type in all cases: in vivo
[1] = test system: canarygrass (Phalaris minor)
How it was run: (§1)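 Pre-emergence: seeds sown in silt loam soil were sprayed with compound in a non-phytotoxic solvent mix containing surfactant. Post-emergence: plants at 2 to 18 cm (1- to 4-leaf stage) in peat moss/vermiculite medium got the same formulation. Visual 0–100 rating versus controls after 14 to 21 d.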

[2] = test system: blackgrass (Alopecurus myosuroides)
How it was run: as §1

[3] = test system: Russian thistle (Salsola kali)
How it was run: as §1

[4] = test system: galium (catchweed bedstraw, Galium aparine)
How it was run: as §1

[5] = test system: bluegrass (annual bluegrass, Poa annua)
How it was run: as §1

[6] = test system: field poppy (Papaver rhoeas)
How it was run: as §1

[7] = test system: ryegrass, Italian (Italian ryegrass, Lolium multiflorum)
How it was run: as §1

[8] = test system: pigweed (Amaranthus retroflexus)
How it was run: as §1

kochia (Kochia scoparia) = test system: kochia (Kochia scoparia)
How it was run: as §1

[9] = test system: foxtail, green (green foxtail, Setaria viridis)
How it was run: as §1

[10] = test system: buckwheat, wild (wild buckwheat, Polygonum convolvulus)
How it was run: as §1

[11] = test system: chickweed (common chickweed, Stellaria media)
How it was run: as §1

[12] = test system: wheat, winter (winter wheat, Triticum aestivum)
How it was run: as §1

[13] = Postemergence, 31 g ai/ha, scale 0 to 100 (0 no effect, 100 complete control)
[14] = Postemergence, 125 g ai/ha, visual rating on scale 0 (no effect) to 100 (complete control), 14 to 21 d
[15] = Postemergence, 250 g ai/ha, scale 0 to 100 (0 no effect, 100 complete control)
[16] = Preemergence, 125 g ai/ha, scale 0 to 100 (0 no effect, 100 complete control)
[17] = Preemergence, 250 g ai/ha, scale 0 to 100 (0 no effect, 100 complete control)
[18] = postemergence, 62 g ai/ha, scale 0 to 100, 0 no effect, 100 complete control
[19] = Preemergence, 62 g ai/ha, scale 0 to 100 (0 no effect, 100 complete control)

Cc1cc(C)c2sc(C)c(-c3c(OC(=O)OCCCl)c(C)nn(C)c3=O)c2c1 [Compound 85]
Canarygrass plant response rating [1, 13]: 75
Plant response rating, Canarygrass [1, 14]: 85
Plant response rating, Canarygrass [1, 15]: 90
Plant response rating (scale of 0 to 100), Canarygrass ([1]; Preemergence, 31 g ai/ha): 80
Plant response rating (scale of 0 to 100), Canarygrass ([1]; Preemergence, 62 g ai/ha): 90
Plant response rating, Canarygrass [1, 16]: 90
Plant response rating, Canarygrass [1, 17]: 95
Plant response rating, Canarygrass [1, 18]: 85
Blackgrass plant response rating [2, 13]: 75
Plant response rating, Blackgrass [2, 14]: 90
Plant response rating, Blackgrass [2, 15]: 90
Plant response rating (scale of 0 to 100), Blackgrass ([2]; Preemergence, 31 g ai/ha): 75
Plant response rating, Blackgrass [2, 19]: 80
Plant response rating, Blackgrass [2, 16]: 85
Plant response rating, Blackgrass [2, 17]: 85
Plant response rating, Blackgrass [2, 18]: 80
Russian Thistle plant response rating [3, 13]: 65
Plant response rating, Russian Thistle [3, 14]: 80
Plant response rating, Russian Thistle [3, 15]: 90
Plant response rating (scale of 0 to 100), Russian Thistle ([3]; Preemergence, 31 g ai/ha): 5
Plant response rating (scale of 0 to 100), Russian Thistle ([3]; Preemergence, 62 g ai/ha): 10
Plant response rating, Russian Thistle [3, 16]: 25
Plant response rating, Russian Thistle [3, 17]: 75
Plant response rating, Russian Thistle [3, 18]: 75
Galium plant response rating [4, 13]: 85
Plant response rating, Galium [4, 14]: 100
Plant response rating, Galium [4, 15]: 100
Plant response rating (scale of 0 to 100), Galium ([4]; Preemergence, 31 g ai/ha): 30
Plant response rating (scale of 0 to 100), Galium ([4]; Preemergence, 62 g ai/ha): 70
Plant response rating, Galium [4, 16]: 75
Plant response rating, Galium [4, 17]: 100
Plant response rating, Galium [4, 18]: 95
Bluegrass plant response rating [5, 13]: 10
Plant response rating, Bluegrass [5, 14]: 25
Plant response rating, Bluegrass [5, 15]: 40
Plant response rating (scale of 0 to 100), Bluegrass ([5]; Preemergence, 31 g ai/ha): 40
Plant response rating, Bluegrass [5, 19]: 60
Plant response rating, Bluegrass [5, 16]: 65
Plant response rating, Bluegrass [5, 17]: 75
Plant response rating, Bluegrass [5, 18]: 20
Field Poppy plant response rating [6, 13]: 70
Plant response rating, Field Poppy [6, 14]: 80
Plant response rating, Field Poppy [6, 15]: 95
Plant response rating, Field Poppy [6, 17]: 95
Plant response rating, Field Poppy [6, 18]: 90
Ryegrass, Italian plant response rating [7, 13]: 80
Plant response rating, Ryegrass, Italian [7, 14]: 85
Plant response rating, Ryegrass, Italian [7, 15]: 90
Plant response rating (scale of 0 to 100), Ryegrass, Italian ([7]; Preemergence, 31 g ai/ha): 55
Plant response rating (scale of 0 to 100), Ryegrass, Italian ([7]; Preemergence, 62 g ai/ha): 80
Plant response rating, Ryegrass, Italian [7, 16]: 85
Plant response rating, Ryegrass, Italian [7, 17]: 90
Plant response rating, Ryegrass, Italian [7, 18]: 85
Pigweed plant response rating [8, 13]: 75
Plant response rating, Pigweed [8, 14]: 85
Plant response rating, Pigweed [8, 15]: 85
Plant response rating (scale of 0 to 100), Pigweed ([8]; Preemergence, 31 g ai/ha): 95
Plant response rating (scale of 0 to 100), Pigweed ([8]; Preemergence, 62 g ai/ha): 100
Plant response rating, Pigweed [8, 16]: 100
Plant response rating, Pigweed [8, 17]: 100
Plant response rating, Pigweed [8, 18]: 80
Kochia plant response rating (kochia (Kochia scoparia); [13]): 40
Plant response rating, Kochia (kochia (Kochia scoparia); [14]): 70
Plant response rating, Kochia (kochia (Kochia scoparia); [15]): 75
Plant response rating (scale of 0 to 100), Kochia (kochia (Kochia scoparia); Preemergence, 31 g ai/ha): 5
Plant response rating (scale of 0 to 100), Kochia (kochia (Kochia scoparia); Preemergence, 62 g ai/ha): 10
Plant response rating, Kochia (kochia (Kochia scoparia); [16]): 10
Plant response rating, Kochia (kochia (Kochia scoparia); [17]): 45
Plant response rating, Kochia (kochia (Kochia scoparia); [18]): 65
Foxtail, Green plant response rating [9, 13]: 75
Plant response rating, Foxtail, Green [9, 14]: 85
Plant response rating, Foxtail, Green [9, 15]: 85
Plant response rating (scale of 0 to 100), Foxtail, Green ([9]; Preemergence, 31 g ai/ha): 25
Plant response rating (scale of 0 to 100), Foxtail, Green ([9]; Preemergence, 62 g ai/ha): 55
Plant response rating, Foxtail, Green [9, 16]: 100
Plant response rating, Foxtail, Green [9, 17]: 100
Plant response rating, Foxtail, Green [9, 18]: 80
Buckwheat, Wild plant response rating [10, 13]: 95
Plant response rating, Buckwheat, Wild [10, 14]: 100
Plant response rating, Buckwheat, Wild [10, 15]: 100
Plant response rating (scale of 0 to 100), Buckwheat, Wild ([10]; Preemergence, 31 g ai/ha): 20
Plant response rating, Buckwheat, Wild [10, 19]: 65
Plant response rating, Buckwheat, Wild [10, 16]: 80
Plant response rating, Buckwheat, Wild [10, 17]: 100
Plant response rating, Buckwheat, Wild [10, 18]: 100
Chickweed plant response rating [11, 13]: 90
Plant response rating, Chickweed [11, 14]: 100
Plant response rating, Chickweed [11, 15]: 100
Plant response rating (scale of 0 to 100), Chickweed ([11]; Preemergence, 31 g ai/ha): 100
Plant response rating (scale of 0 to 100), Chickweed ([11]; Preemergence, 62 g ai/ha): 100
Plant response rating, Chickweed [11, 16]: 100
Plant response rating, Chickweed [11, 17]: 100
Plant response rating, Chickweed [11, 18]: 100
Wheat, Winter plant response rating [12, 13]: 0
Plant response rating, Wheat, Winter [12, 14]: 0
Plant response rating, Wheat, Winter [12, 15]: 10
Plant response rating (scale of 0 to 100), Wheat, Winter ([12]; Preemergence, 31 g ai/ha): 0
Plant response rating (scale of 0 to 100), Wheat, Winter ([12]; Preemergence, 62 g ai/ha): 0
Plant response rating, Wheat, Winter [12, 16]: 5
Plant response rating, Wheat, Winter [12, 17]: 15
Plant response rating, Wheat, Winter [12, 18]: 0
